Values quoted from earlier work as cited in patent publication US20110189299A1, “PHARMACEUTICAL COMPOSITION CONTAINING SURFACE-COATED MICROPARTICLES” (NITTO DENKO CORPORATION, priority 2008, published 2011).

For `CN(C)CCc1c[nH]c2ccc(C[C@H]3COC(=O)N3)cc12` [Zolmitriptan], the pKa is given as 9.5.
